The test system of this assay is moAb A1 (anti-gliadin 33-mer). The assay can be described thus: A1 competitive ELISA (immobilized gliadin, A1-HRP). The class given is binding. The conditions noted are these: Figure 2A. The method, then:
Maxisorp microtitre plates (Nunc, Roskilde, Denmark) were coated with gliadin solution (Sigma, St Louis, MO, USA) and incubated overnight at 4°C. The plates were washed with phosphate-buffered saline (PBS) containing 0.05% Tween 20 and blocked with 5% non-fat dry milk in PBS for 1 h at room temperature (RT). 33-mer peptide was used as standard. Serial dilutions of peptides were made in PBS-bovine serum albumin (BSA) 3%, to each of which was added G12-HRP or A1-HRP antibody solution [14]. The samples were pre-incubated at RT, and then added to the wells. After 30 min of incubation at RT, the plates were washed and substrate solution (TMB, Sigma) was added. The reaction was stopped with 1 M sulphuric acid, and the absorbance at 450 nm was measured (microplate reader UVM340; Asys Hitech GmbH, Eugendorf, Austria). Two separate assays were performed, each with three repetitions.
Peptide curves were obtained by plotting percentage maximum absorbance against logarithm of antigen concentration. The software package Sigma Plot 9.0 (Systat Software, Inc., Point Richmond, CA, USA) was used to calculate IC50 and the cross-reactivity (CR) for each peptide. The IC50 is defined as the concentration that produces a reduction of 50% in the peak signal in the ELISA. The CR was determined as (IC50 of the peptide that presents the greatest affinity for the antibody/IC50 of each peptide assayed) x 100.

Residues, ends and D or L forms follow the SMILES beside them.

For the molecule `CC(C)C[C@H](NC(=O)[C@H](CCC(N)=O)NC(=O)[C@@H](N)CC(C)C)C(=O)N[C@@H](CCC(N)=O)C(=O)N1CCC[C@H]1C(=O)N[C@@H](Cc1ccccc1)C(=O)N1CCC[C@H]1C(=O)N[C@@H](CCC(N)=O)C(=O)N1CCC[C@H]1C(=O)N[C@@H](CCC(N)=O)C(=O)N[C@@H](CC(C)C)C(=O)N1CCC[C@H]1C(=O)N[C@@H](Cc1ccc(O)cc1)C(=O)N1CCC[C@H]1C(=O)N[C@@H](CCC(N)=O)C(=O)N1CCC[C@H]1C(=O)N[C@@H](CCC(N)=O)C(=O)N[C@@H](CC(C)C)C(=O)N1CCC[C@H]1C(=O)N[C@@H](Cc1ccc(O)cc1)C(=O)N1CCC[C@H]1C(=O)N[C@@H](CCC(N)=O)C(=O)N1CCC[C@H]1C(=O)N[C@@H](CCC(N)=O)C(=O)N[C@@H](CC(C)C)C(=O)N1CCC[C@H]1C(=O)N[C@@H](Cc1ccc(O)cc1)C(=O)N1CCC[C@H]1C(=O)N[C@@H](CCC(N)=O)C(=O)N1CCC[C@H]1C(=O)N[C@@H](CCC(N)=O)C(=O)N1CCC[C@H]1C(=O)N[C@@H](Cc1ccccc1)C(=O)O` [33-mer] (H-LQLQPFPQPQLPYPQPQLPYPQPQLPYPQPQPF-OH; N-terminus and C-terminus assumed), the “moAb A1 IC50” value (competitive ELISA, gliadin-coated plates, A1-HRP, 30 min RT, absorbance 450 nm, two assays, three replicates each) was determined as 0.60 µg/mL. In addition, the “moAb A1 CR” value (cross-reactivity = (IC50 of peptide with greatest affinity / IC50 of each peptide) x 100, PP 24.1 = 100) came to 241.67%.

Values taken from PMC4071002, “Identification and In Vitro Reactivity of Celiac Immunoactive Peptides in an Apparent Gluten-Free Beer” (PLoS ONE, 2014).
